Read-outs that look alike come from different tables or passages of the source.
B1: IL-27: cytokine of the panel of T cell survival and/or proliferation cytokines (protein, UniProt Q8NEV9 29-243; Q14213 21-229, looked up)
Interleukin-27 subunit alpha: FPRPPGRPQLSLQELRREFTVSLHLARKLLSEVRGQAHRFAESHLPGVNLYLLPLGEQLPDVSLTFQAWRRLSDPERLCFISTTLQPFHALLGGLGTQGRWTNMERMQLWAMRLDLRDLQRHLRFQVLAAGFNLPEEEEEEEEEEEEERKGLLPGALGSALQGPAQVSWPQLLSTYRLLHSLELVLSRAVRELLLLSKAGHSVWPLGFPTLSPQP
Interleukin-27 subunit beta: RKGPPAALTLPRVQCRASRYPIAVDCSWTLPPAPNSTSPVSFIATYRLGMAARGHSWPCLQQTPTSTSCTITDVQLFSMAPYVLNVTAVHPWGSSSSFVPFITEHIIKPDPPEGVRLSPLAERQLQVQWEPPGSWPFPEIFSLKYWIRYKRQGAARFHRVGPIEATSFILRAVRPRARYYVQVAAQDLTDYGELSDWSLPATATMSLGK
B2: IL-7: recombinant mouse IL-7 (Peprotech) (protein, UniProt P10168 26-154, looked up)
Interleukin-7: ECHIKDKEGKAYESVLMISIDELDKMTGTDSNCPNNEPNFFRKHVCDDTKEAAFLNRAARKLKQFLKMNISEEFNVHLLTVSQGTQTLVNCTSKEEKNVKEQKKNDACFLKRLLREIKTCWNKILKGSI

Columns and labels:
[1] = system: A2780 ovarian cancer cells; test: Molecular screening of compounds on A2780 cell proliferation (resazurin fluorescence); type: cell-based, human; settings: for EC50: Homo sapiens, A2780 cells cultured 3 days (72 hrs), from normalized percent inhibition, N/A = ambiguous curve fits or EC50 greater than highest concentration tested (25 μM)
Protocol: Plots show the normalized percent inhibition (NPI) vs. concentration in log (μM).
(§1) Cell proliferation assays—Cells were plated in 96-well plates. Compounds were added the next morning, and cell proliferation was measured 48 hrs later with the […] 96 MTS assay (Promega) according to the manufacturer's instructions. Molecular screening of compounds on A2780 cells was performed by adding compounds the morning after plating in 384-well plates and measuring proliferation 72 hrs later with resazurin fluorescence. Normalized percent inhibition (NPI) was calculated with respect to fluorescence values obtained with DMSO negative control and doxorubicin (5 μM) positive control as NPI=100%*(DMSO−compound)/(DMSO−doxorubicin).
EC50 values were calculated from normalized percent inhibition data using non-linear curve fitting in PRISM software.

[2] = system: human T cells; test: ConA-induced activation and expansion of human T cells (high-throughput screen); type: cell-based; settings: for EC50: T-cell, 168 h, read-out: EC50-T cells
[3] = system: MCF-7 tumor cells; test: MCF-7 cell proliferation, MTS assay; type: cell-based, human; settings: 2 days, compared with T cell division indices
Protocol: Representative results from one of two independent experiments.
as §1

[4] = system: T cells; test: Cytokine rescue of T cell proliferation from MEK inhibition; type: cell-based, human; settings: IL-2 20 U/ml, IL-7 2 ng/ml, IL-15 10 ng/ml, IL-21 100 ng/ml, IL-27 50 ng/ml, ALT-803 35.7 ng/ml
Description: Proliferation of CD8 T cells after 7 days is shown.
Proliferation of CD8 T cells is shown.
Reported are percentages of cells that proliferated with GDC0973 relative to vehicle treatment with the same cytokines after 7 days. Stains are not depicted.
T cell stimulation—For human T cell proliferation assays, peripheral blood lymphocytes were obtained by leukapheresis/elutriation and Miltenyi bead-purified and K562 cells expressing human CD32 were generated as previously described^41. K32 were γ-irradiated (100 Gy) and loaded with anti-CD3 (500 ng/ml, clone OKT3; eBioscience) plus anti-CD28 (500 ng/ml, clone 15E8; EMD Millipore) antibodies at room temperature for 10 minutes. PBMCs were labeled with CELLTRACE Violet stain (Invitrogen) according to the manufacturer's instructions and cocultured with loaded K32 cells at a 10:1 T cell to K32 ratio or activated with ConA (2 μg/ml, Sigma). Proliferation of stimulated T cells was determined 7 days later by FACS and Division Index was calculated using FlowJo™ software.

[5] = human T cells activated with ConA for 7 days, from normalized percent inhibition, N/A = ambiguous curve fits or EC50 greater than highest concentration tested (25 μM)

Row | Molecule | EC50 [2, 5] | rescue of T cell proliferation in the presence of the MEK inhibitors [4] | other results
1 | N#CC(=C(/N)Sc1ccccc1N)/C(C#N)=C(\N)Sc1ccccc1N [U0126] |  |  | EC50 [1]: 12600 nM; EC50 ([2]; Homo sapiens): 1920 nM
2 | C[C@]1(O)C[C@@H](c2nc(-c3ccc4ccc(-c5ccccc5)nc4c3)c3c(N)nccn32)C1 [OSI906] |  |  | activity on A2780 cells (in words) [1]: did not show any activity; MCF-7 tumor cell proliferation [3]: reduction in tumor cell proliferation at concentrations that did not affect T cells; activity on T cells (in words) ([2]; ConA-driven in vitro proliferation of human T cells): did not show any activity
3 | CC(=O)c1c(C)c2cnc(Nc3ccc(N4CCNCC4)cn3)nc2n(C2CCCC2)c1=O [PD0332991] | 110 nM |  | 
4 | CN(C)CC[C@H](CSc1ccccc1)Nc1ccc(S(=O)(=O)NC(=O)c2ccc(N3CCN(Cc4ccccc4-c4ccc(Cl)cc4)CC3)cc2)cc1[N+](=O)[O-] [ABT737] | 61 nM |  | 
5 | IL-21: cytokine of the panel of T cell survival and/or proliferation cytokines |  | no effect | 
6 | IL-15: Recombinant human IL-15 (Novoprotein); proliferative cytokine |  | able to rescue | 
7 | Cn1c(=O)n(-c2ccc(C(C)(C)C#N)cc2)c2c3cc(-c4cnc5ccccc5c4)ccc3ncc21 [BEZ235] | 2.4 nM |  | EC50 [1]: 21 nM
8 | Cc1[nH]c2ccccc2c1CCNCc1ccc(/C=C/C(=O)NO)cc1 [LBH589] | 25 nM |  | 
9 | B1 |  | no effect | 
10 | B2 |  | able to rescue | 
